Test results reported in US6506772B1, “Substituted [1,2,4]triazolo[1,5a]pyridine derivatives with activity as adenosine receptor ligands” (Hoffmann-La Roche Inc., priority 2000, dated 2003).

Experiments:
[1] = biological target: T1, human adenosine A2A receptor (Homo sapiens, UniProt P29274); assay: Human adenosine A2A receptor [3H]-SCH-58261 binding assay; details: for Ki: affinity to human adenosine A2A receptor, read-out: Ki HA2A; for selectivity (A1/A2a): calculated ratio of the affinity to the HA1 receptor to the HA2a receptor
T1 construct: expressed in transfected cells; host or cells: CHO cells, Semliki Forest virus expression system; membrane preparation
T1 sequence (P29274 whole entry): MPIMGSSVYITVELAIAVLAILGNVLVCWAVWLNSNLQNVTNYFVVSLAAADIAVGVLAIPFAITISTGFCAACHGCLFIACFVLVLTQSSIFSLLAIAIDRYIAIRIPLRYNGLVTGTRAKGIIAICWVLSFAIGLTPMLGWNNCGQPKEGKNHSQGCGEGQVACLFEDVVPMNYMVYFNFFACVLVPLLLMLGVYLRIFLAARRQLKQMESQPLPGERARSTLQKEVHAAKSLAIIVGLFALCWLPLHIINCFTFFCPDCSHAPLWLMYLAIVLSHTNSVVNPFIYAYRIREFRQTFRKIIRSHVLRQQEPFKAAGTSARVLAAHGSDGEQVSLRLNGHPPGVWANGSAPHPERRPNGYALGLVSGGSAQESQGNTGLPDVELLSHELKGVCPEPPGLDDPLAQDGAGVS

HA1 adenosine receptor = biological target: T2, HA1 adenosine receptor (Homo sapiens, UniProt P30542); assay: Human adenosine A1 receptor affinity (Ki hA1); assay type: binding; details: affinity to human adenosine A1 receptor
T2 sequence (P30542 1-326): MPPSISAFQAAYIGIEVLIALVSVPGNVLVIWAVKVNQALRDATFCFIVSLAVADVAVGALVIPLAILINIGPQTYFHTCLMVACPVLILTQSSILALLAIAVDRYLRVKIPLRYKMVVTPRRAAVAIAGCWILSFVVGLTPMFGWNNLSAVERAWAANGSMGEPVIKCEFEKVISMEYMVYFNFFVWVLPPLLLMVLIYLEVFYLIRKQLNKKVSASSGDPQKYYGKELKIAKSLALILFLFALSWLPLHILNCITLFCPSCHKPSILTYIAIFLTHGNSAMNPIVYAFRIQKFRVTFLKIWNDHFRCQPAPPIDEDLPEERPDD

Row | SMILES | Ki [1] | selectivity (A1/A2a) [1] | Ki (HA1 adenosine receptor)
1 | CCCCNC(=O)c1cc(N)n2nc(-c3sccc3C)nc2c1 [Example 184, 5-Amino-2-(3-methyl-thiophen-2-yl)-[1,2,4]triazolo[1,5-a]pyridine-7-carboxylic acid butylamide] | 69.5 nM | 1.9 | 133 nM
2 | CCN(CC)C(=O)c1cc(N)n2nc(-c3sccc3C)nc2c1 [Example 185, 5-Amino-2-(3-methyl-thiophen-2-yl)-[1,2,4]triazolo[1,5-a]pyridine-7-carboxylic acid diethylamide] | 238 nM | 6.0 | 1420 nM
3 | Cc1ccsc1-c1nc2cc(C(=O)N(C(C)C)C(C)C)cc(N)n2n1 [Example 186, 5-Amino-2-(3-methyl-thiophen-2-yl)-[1,2,4]triazolo[1,5-a]pyridine-7-carboxylic acid diisopropylamide] | 210 nM | 1.2 | 249 nM
4 | Cc1ccsc1-c1nc2cc(C(=O)NC3CCc4ccccc43)cc(N)n2n1 (stereo not drawn) [Example 187, 5-Amino-2-(3-methyl-thiophen-2-yl)-[1,2,4]triazolo[1,5-a]pyridine-7-carboxylic acid indan-1-ylamide] | 224 nM | 1.0 | 228 nM
5 | Cc1ccsc1-c1nc2cc(C(=O)N3CCCC3)cc(N)n2n1 [Example 188, [5-Amino-2-(3-methyl-thiophen-2-yl)-[1,2,4]triazolo[1,5-a]pyridin-7-yl]-pyrrolidin-1-yl-methanone] | 226 nM | 3.1 | 711 nM
6 | Cc1ccsc1-c1nc2cc(C(=O)N3CCCCC3)cc(N)n2n1 [Example 189, [5-Amino-2-(3-methyl-thiophen-2-yl)-[1,2,4]triazolo[1,5-a]pyridin-7-yl]-piperidin-1-yl-methanone] | 268 nM | 2.9 | 763 nM
7 | Cc1ccsc1-c1nc2cc(C(=O)NC(C)c3ccccc3)cc(N)n2n1 (stereo not drawn) [Example 190, 5-Amino-2-(3-methyl-thiophen-2-yl)-[1,2,4]triazolo[1,5-a]pyridine-7-carboxylic acid (1-phenyl-ethyl)-amide] | 365 nM | 0.1 | 47.3 nM
8 | Cc1ccsc1-c1nc2cc(C(=O)NCc3ccccc3Cl)cc(N)n2n1 [Example 191, 5-Amino-2-(3-methyl-thiophen-2-yl)-[1,2,4]triazolo[1,5-a]pyridine-7-carboxylic acid 2-chloro-benzylamide] | 108 nM | 1.2 | 131 nM
9 | COc1ccccc1CNC(=O)c1cc(N)n2nc(-c3sccc3C)nc2c1 [Example 192, 5-Amino-2-(3-methyl-thiophen-2-yl)-[1,2,4]triazolo[1,5-a]pyridine-7-carboxylic acid 2-methoxy-benzylamide] | 129 nM | 0.9 | 112 nM
10 | CCCCNC(=O)c1cc(N)n2nc(-c3ccc(C)s3)nc2c1 [Example 193, 5-Amino-2-(5-methyl-thiophen-2-yl)-[1,2,4]triazolo[1,5-a]pyridine-7-carboxylic acid butylamide] | 41.7 nM | 1.8 | 74.8 nM
11 | CCN(C(=O)c1cc(N)n2nc(-c3ccc(C)s3)nc2c1)C(C)C [Example 194, 5-Amino-2-(5-methyl-thiophen-2-yl)-[1,2,4]triazolo[1,5-a]pyridine-7-carboxylic acid ethyl-isopropyl-amide] | 56.3 nM | 4.4 | 246 nM
12 | Cc1ccc(-c2nc3cc(C(=O)NC4CCCCC4)cc(N)n3n2)s1 [Example 195, 5-Amino-2-(5-methyl-thiophen-2-yl)-[1,2,4]triazolo[1,5-a]pyridine-7-carboxylic acid cyclohexylamide] | 109 nM | 1.3 | 145 nM
13 | Cc1ccc(-c2nc3cc(C(=O)N4CCCC4)cc(N)n3n2)s1 [Example 196, [5-Amino-2-(5-methyl-thiophen-2-yl)-[1,2,4]triazolo[1,5-a]pyridin-7-yl]-pyrrolidin-1-yl-methanone] | 52.2 nM | 8.3 | 432 nM
14 | Cc1ccc(-c2nc3cc(C(=O)NCc4ccccc4)cc(N)n3n2)s1 [Example 197, 5-Amino-2-(5-methyl-thiophen-2-yl)-[1,2,4]triazolo[1,5-a]pyridine-7-carboxylic acid benzylamide] | 178 nM | 0.5 | 90.3 nM
15 | Cc1ccc(-c2nc3cc(C(=O)NC(C)c4ccccc4)cc(N)n3n2)s1 (stereo not drawn) [Example 198, 5-Amino-2-(5-methyl-thiophen-2-yl)-[1,2,4]triazolo[1,5-a]pyridine-7-carboxylic acid (1-phenyl-ethyl)-amide] | 174 nM | 0.6 | 112 nM
16 | Cc1ccc(-c2nc3cc(C(=O)NCc4ccccc4Cl)cc(N)n3n2)s1 [Example 199, 5-Amino-2-(5-methyl-thiophen-2-yl)-[1,2,4]triazolo[1,5-a]pyridine-7-carboxylic acid 2-chloro-benzylamide] | 30.2 nM | 1.2 | 36.9 nM
17 | Cc1ccc(-c2nc3cc(C(=O)NCc4ccccc4Br)cc(N)n3n2)s1 [Example 200, 5-Amino-2-(5-methyl-thiophen-2-yl)-[1,2,4]triazolo[1,5-a]pyridine-7-carboxylic acid 2-bromo-benzylamide] | 22 nM | 1.7 | 37.9 nM
18 | COc1ccccc1CNC(=O)c1cc(N)n2nc(-c3ccc(C)s3)nc2c1 [Example 201, 5-Amino-2-(5-methyl-thiophen-2-yl)-[1,2,4]triazolo[1,5-a]pyridine-7-carboxylic acid 2-methoxy-benzylamide] | 31.3 nM | 1.1 | 33 nM
19 | COc1cc(CNC(=O)c2cc(N)n3nc(-c4ccc(C)s4)nc3c2)cc(OC)c1OC [Example 202, 5-Amino-2-(5-methyl-thiophen-2-yl)-[1,2,4]triazolo[1,5-a]pyridine-7-carboxylic acid 3,4,5-trimethoxy-benzylamide] | 310 nM | 2.2 | 678 nM
20 | Cc1ccc(-c2nc3cc(C(=O)NC4CCc5ccccc54)cc(N)n3n2)s1 (stereo not drawn) [Example 203, 5-Amino-2-(5-methyl-thiophen-2-yl)-[1,2,4]triazolo[1,5-a]pyridine-7-carboxylic acid indan-1-ylamide] | 60 nM | 1.1 | 66.2 nM
21 | CN(Cc1ccccc1)C(=O)c1cc(N)n2nc(-c3nccs3)nc2c1 [Example 204, 5-Amino-2-thiazol-2-yl-[1,2,4]triazolo[1,5-a]pyridine-7-carboxylic acid benzyl-methyl-amide] | 41.7 nM | 7.8 | 325 nM
22 | Nc1cc(C(=O)NCc2ccc(Cl)cc2)cc2nc(-c3nccs3)nn12 [Example 205, 5-Amino-2-thiazol-2-yl-[1,2,4]triazolo[1,5-a]pyridine-7-carboxylic acid 4-chloro-benzylamide] | 157 nM | 1.9 | 294 nM
23 | Nc1cc(C(=O)NCc2ccc(F)cc2)cc2nc(-c3nccs3)nn12 [Example 206, 5-Amino-2-thiazol-2-yl-[1,2,4]triazolo[1,5-a]pyridine-7-carboxylic acid 4-fluoro-benzylamide] | 126 nM | 5.2 | 657 nM
24 | COc1ccc(CNC(=O)c2cc(N)n3nc(-c4nccs4)nc3c2)cc1 [Example 207, 5-Amino-2-thiazol-2-yl-[1,2,4]triazolo[1,5-a]pyridine-7-carboxylic acid 4-methoxy-benzylamide] | 187 nM | 2.8 | 533 nM
25 | COc1ccc(CNC(=O)c2cc(N)n3nc(-c4nccs4)nc3c2)cc1OC [Example 208, 5-Amino-2-thiazol-2-yl-[1,2,4]triazolo[1,5-a]pyridine-7-carboxylic acid 3,4-dimethoxy-benzylamide] | 316 nM | 5.9 | 1860 nM
26 | Cc1ccc(-c2nc3cc(C(=O)NCc4ccccc4)cc(N)n3n2)o1 [Example 210, 5-Amino-2-(5-methyl-furan-2-yl)-[1,2,4]triazolo[1,5-a]pyridine-7-carboxylic acid benzylamide] | 48.6 nM | 6.1 | 299 nM
27 | Cc1ccc(-c2nc3cc(C(=O)NC(C)c4ccccc4)cc(N)n3n2)o1 (stereo not drawn) [Example 211, 5-Amino-2-(5-methyl-furan-2-yl)-[1,2,4]triazolo[1,5-a]pyridine-7-carboxylic acid (1-phenyl-ethyl)-amide] | 57.3 nM | 5.2 | 298 nM
28 | Cc1ccc(-c2nc3cc(C(=O)NCc4ccc(Cl)cc4)cc(N)n3n2)o1 [Example 212, 5-Amino-2-(5-methyl-furan-2-yl)-[1,2,4]triazolo[1,5-a]pyridine-7-carboxylic acid 4-chloro-benzylamide] | 190 nM | 3.3 | 634 nM
29 | Cc1ccc(-c2nc3cc(C(=O)NCc4ccc(F)cc4)cc(N)n3n2)o1 [Example 213, 5-Amino-2-(5-methyl-furan-2-yl)-[1,2,4]triazolo[1,5-a]pyridine-7-carboxylic acid 4-fluoro-benzylamide] | 73.2 nM | 4.7 | 343 nM
